# Experimental data from US10385055B2, “Tricyclic gyrase inhibitors” (Merck Sharp & Dohme Corp., priority 2013, dated 2019).
# “And” between values parts separate entries of the source, which are not always exact repeats. Equal entries are not always repeated.
# Assays:
# S. aureus = experiment: Anti-bacterial efficacy (MIC), S. aureus; type: cell-based; conditions: for MIC Sa: Table 2; for MIC: Staphylococcus aureus, Table 3
# E. coli = experiment: Anti-bacterial efficacy (MIC), E. coli; type: cell-based; conditions: for MIC Ec: Table 2; for MIC: Escherichia coli, Table 3
# K. pneumoniae = experiment: Anti-bacterial efficacy (MIC), K. pneumoniae; type: cell-based; conditions: for MIC Kpn: Table 2; for MIC: Klebsiella pneumoniae, Table 3
# A. baumannii = experiment: Anti-bacterial efficacy (MIC), A. baumannii; type: cell-based; conditions: for MIC Ab: Table 2; for MIC: Acinetobacter baumannii, Table 3
# hERG = molecular target: T1, hERG (Homo sapiens, UniProt Q12809); experiment: hERG inhibition, Cerep automated patch-clamp assay in Chinese Hamster Ovary K1 cells; type: cell-based; conditions: CHO K1 cells, tail current, read-out: hREG IC50
# T1 construct: host or cells: Chinese Hamster Ovary K1 cells
# T1 sequence (Q12809 whole entry): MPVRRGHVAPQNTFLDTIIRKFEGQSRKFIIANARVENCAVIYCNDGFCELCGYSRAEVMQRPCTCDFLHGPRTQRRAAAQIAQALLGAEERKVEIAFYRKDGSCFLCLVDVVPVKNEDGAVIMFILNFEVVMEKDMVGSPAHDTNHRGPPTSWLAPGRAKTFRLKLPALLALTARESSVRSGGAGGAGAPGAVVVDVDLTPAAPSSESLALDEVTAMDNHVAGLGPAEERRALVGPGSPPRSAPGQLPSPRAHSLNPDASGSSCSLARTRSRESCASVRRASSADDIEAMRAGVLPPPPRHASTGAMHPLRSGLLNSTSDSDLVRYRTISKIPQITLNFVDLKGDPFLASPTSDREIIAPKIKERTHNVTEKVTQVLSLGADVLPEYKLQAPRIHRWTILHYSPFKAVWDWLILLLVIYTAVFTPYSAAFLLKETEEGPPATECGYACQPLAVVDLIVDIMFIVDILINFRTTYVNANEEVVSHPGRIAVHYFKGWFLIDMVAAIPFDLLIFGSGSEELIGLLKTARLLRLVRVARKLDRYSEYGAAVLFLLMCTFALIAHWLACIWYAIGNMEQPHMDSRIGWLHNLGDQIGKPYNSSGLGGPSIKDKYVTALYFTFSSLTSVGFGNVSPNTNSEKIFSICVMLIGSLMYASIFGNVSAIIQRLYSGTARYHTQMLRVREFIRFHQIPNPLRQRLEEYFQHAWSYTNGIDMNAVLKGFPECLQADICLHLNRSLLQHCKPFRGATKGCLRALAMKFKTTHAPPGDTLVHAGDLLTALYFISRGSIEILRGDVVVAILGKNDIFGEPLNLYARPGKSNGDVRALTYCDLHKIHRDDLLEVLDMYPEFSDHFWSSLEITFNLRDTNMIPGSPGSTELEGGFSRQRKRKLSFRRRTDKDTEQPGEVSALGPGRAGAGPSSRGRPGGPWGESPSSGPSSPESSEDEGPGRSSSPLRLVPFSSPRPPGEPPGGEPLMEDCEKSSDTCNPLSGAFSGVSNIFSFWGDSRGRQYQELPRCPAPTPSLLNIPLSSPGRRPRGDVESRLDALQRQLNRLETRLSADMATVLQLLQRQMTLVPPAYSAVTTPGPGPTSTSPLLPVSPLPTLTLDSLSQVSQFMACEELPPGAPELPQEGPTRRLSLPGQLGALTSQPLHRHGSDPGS
# Method: A Cerep automated patch-clamp assay using Chinese Hamster Ovary K1 cells was used to measure hERG IC50 values. The degree of inhibition (%) was obtained by measuring the tail current amplitude, which is induced by a one second test pulse to −40 mV after a two second pulse to +20 mV, before and after drug incubation (the difference in current was normalized to control and multiplied by 100 to obtain the percent inhibition).
# Concentration (log) response curves were fitted to a logistic equation (three parameters assuming complete block of the current at very high test compound concentrations) to generate estimates of the 50% inhibitory convcentration (IC50). The concentration-response relationship of each compound was constructed from the percentage reductions of current amplitude by sequential concentrations. The MIC and hERG IC50 values are provided in Table 2 below for the compounds tested.
# P. aeruginosa = experiment: Anti-bacterial efficacy (MIC), P. aeruginosa; type: cell-based; conditions: for MIC Pa: Table 2; for MIC: Pseudomonas aeruginosa, Table 3
# [1] = In vivo mouse PK, oral bioavailability; conditions: plasma, AUC oral / AUC intravenous, read-out: Mouse % F
# Method: Typical protocol is a single dose intravenous and oral (gavage) administration with blood collection from each animal by cardiac puncture at selected (6 to 8) time points (n=3 mice per time point) into a tube containing an appropriate anticoagulant. The blood is centrifuged and the resulting plasma removed for subsequent analysis. After proper sample preparation, the plasma concentrations of a test compound are determined by LC-MS/MS and the pharmacokinctics (namely, area-under-curve or AUC) of the concentration-time profile from oral administration is compared with the corresponding pharmacokinetics from intravenous administration. […] In addition, Caco values are shown.
# Caco-2 cell monolayer = Caco-2 cell monolayer permeability; type: in vitro ADME, human; conditions: Caco-2 monolayer permeability
# Text: Oral bioavailability can be assessed by various methods such as measuring the Caco-2 cell monolayer permeability, and measuring pharmacokinetic properties by calculating the ratio of the AUC from oral administration to the AUC from intravenous administration. Both methods are used to assess compounds here as illustrated in Examples 8-9. In some aspects, compounds herein show the highest membrane (Caco-2 cell monolayer) permeability among all the compounds tested. The Caco-2 cell line is a continuous cell of heterogeneous human epithelial colorectal adenocarcinoma cells that when cultured under specific conditions the cells become differentiated and polarized such that their phenotype, morphologically and functionally, resembles the enterocytes lining the small intestine. Thus, the Caco-2 monolayer is widely used across the pharmaceutical industry as an in vitro model of the human small intestinal mucosa to predict the absorption of orally-administered drugs.
# Caco-2 human colon carcinoma cell line (Caco-2) was used as a model system for intestinal epithelial permeability. There is similarity in uptake and barrier properties between this cell system and the small intestinal epithelial layer. See., Hidalgo I J, et al., Gastroenterology. 1989 March; 96(3):736-49. Characterization of the human colon carcinoma cell line (Caco-2) as a model system for intestinal epithelial permeability.
# Dog oral bioavailability = conditions: in vivo, read-out: Dog % F
Structure (SMILES),MIC Sa (S. aureus) [µg/mL],MIC Ec (E. coli) [µg/mL],MIC Kpn (K. pneumoniae) [µg/mL],MIC Ab (A. baumannii) [µg/mL],IC50 (hERG) [µM],MIC Pa (P. aeruginosa) [µg/mL],MIC (S. aureus) [µg/mL],MIC (E. coli) [µg/mL],MIC (K. pneumoniae) [µg/mL],bioavailability [1] [%],MIC (A. baumannii) [µg/mL],MIC (P. aeruginosa) [µg/mL],Caco (Caco-2 cell monolayer),bioavailability (Dog oral bioavailability) [%]
CNc1cc(F)cc2c1[nH]c1nc(Oc3cnc(C)nc3)nc(N3CC4CC(N)C4C3)c12 (stereo not shown),≤0.016,0.25,2,0.25,1,1,–,–,–,–,–,–,–,–
CNc1cc(F)c(F)c2c1[nH]c1nc(Oc3cnc([C@H](C)O)nc3)nc(N3CC4(CCC4N)C3)c12 (stereo partly shown) [1.2],–,–,–,–,–,–,≤ 0.016,0.13,1,< 2,2,1,–,–
CNc1cc(F)cc2c1[nH]c1nc(Oc3cnc(C)nc3)nc(N3C[C@@H]4[C@@H](O)[C@@H]4C3)c12 [1.4],–,–,–,–,–,–,≤ 0.016,0.5,1,15,2,> 16,7.5 10^−8 cm/s,–
CNc1cc(F)cc2c1[nH]c1nc(Oc3cnc(C)nc3)nc(N3C[C@H]4C[C@@H](O)[C@H]4C3)c12 [1.3],–,–,–,–,–,–,≤ 0.016,0.13,0.5,25,1,16,5.5 10^−8 cm/s and 6.3 10^−8 cm/s,50
CNc1cc(F)c(F)c2c1[nH]c1nc(Oc3cnc([C@H](C)O)nc3)nc(N3C[C@H]4CC3C[C@H]4N)c12 [1.1],–,–,–,–,–,–,≤ 0.016,0.25,1,< 2,4,2,<0.1 10^−8 cm/s,–
CNc1cc(F)cc2c1[nH]c1nc(Oc3cnc(C)nc3)nc(N3CC4(CCC4N)C3)c12 (stereo not shown),≤0.016,0.25,2,0.5,16,1,–,–,–,–,–,–,–,–
CNc1cc(F)cc2c1[nH]c1nc(Oc3cnc(C)nc3)nc(N3CC4CC3CC4O)c12 (stereo not shown),≤0.016,1,8,4,71,>16,–,–,–,–,–,–,–,–
CNc1cc(F)cc2c1[nH]c1nc(Oc3cnc(C)nc3)nc(N3CC4C(O)C4C3)c12 (stereo not shown),≤0.016,0.25,1,0.5,41,>16,–,–,–,–,–,–,–,–
CNc1cc(F)cc2c1[nH]c1nc(Oc3cnc(C)nc3)nc(N3CC4C(N)C4C3)c12 (stereo not shown),≤0.016,0.13,2,0.25,9.5,4,–,–,–,–,–,–,–,–
CNc1cc(F)cc2c1[nH]c1nc(Oc3cnc(C)nc3)nc(N3CC4(CCC4O)C3)c12 (stereo not shown),≤0.016,1,4,4,100,>16,–,–,–,–,–,–,–,–
CNc1cc(F)cc2c1[nH]c1nc(Oc3cnc(C)nc3)nc(N3CC4CC3CC4N)c12 (stereo not shown),≤0.016,0.13,2,0.5,4,1,–,–,–,–,–,–,–,–
CNc1cc(F)cc2c1[nH]c1nc(Oc3cnc(C)nc3)nc(N3CC4CC(O)C4C3)c12 (stereo not shown),≤0.016,0.13,1,0.5,20,16,–,–,–,–,–,–,–,–
